In US5508273A, “Substituted phosphonic acids and derivatives useful in treating bone wasting diseases” (priority 1993, dated 1996) one finds activity, IC50 and inhibition data, which are given here for seven compounds.

The test system of assay [1] is osteoblast-line cells (mouse MC3T3-E 1 and human TE-85). In words: Osteoblast cell proliferation (3H-thymidine incorporation). Type of assay: cell-based. The settings on record: MC3T3-E1, control is 100%, cell line (MC3T3-E 1 or TE-85) not stated per value, read-out: Osteoblast Prolif (% XControl@ 0.01 uM). From the text:
Compounds of the present invention have utility to treat bone wasting diseases including osteoporosis in animals including humans through enhancement of bone calcification as well as inhibition of bone degeneration or resorption. The compounds of the present invention have been evaluated as inhibitors of human prostatic tyrosyl phosphatase, an isoenzyme similar to a tyrosyl phosphatase present in human osteoblasts. Inhibitors of the enzyme are involved with the stimulation of osteoblast cell proliferation in cell culture which is predictive of enhancement of bone mass and bone formation in vivo. Inhibitors of osteoclastic acid phosphatase prevent the resorptive action of osteoclasts and thereby prevent the degradation of bone mass associated with osteoporosis. Table 1 reports the results of the compounds of the present invention in inhibiting human prostatic tyrosyl phosphatase and osteoclastic acid phosphatase. […] Their ability to stimulate osteoblast cell proliferation at 0.01 uM concentration is presented also in Table 1. […] However, such compounds may be useful as prodrugs to the acid (R^1 and R^2 equal H) and as intermediates useful in making the corresponding acid.
The action of select compounds to stimulate osteoblast growth can be measured in culture by estimating the rate of DNA synthesis by the rate of ^3 H-thymidine incorporation into DNA. Only cells undergoing mitosis will synthesize new DNA and thus only these cells will incorporate the radiolabeled DNA-specific thymidine. The stimulation of the proliferation and differentiation of bone-forming cells, osteoblasts, is a prerequisite for an increase in bone formation and bone mass. The ability of agents to increase osteoblast proliferation and differentiation can be predicted by their action on cultured osteoblast-line cells in vitro. In this test, mouse (MC3T3-E 1) cloned by Sudo et al. Koriyama, Japan) and human (TE-85) osteoblast-line cells (American Type Tissue Culture Collection, #CRL 1543, Rockville, Md.) were cultured/n vitro and the effect of various agents was tested on osteoblast cell proliferation. Osteoblasts were isolated and cultured according to literature methods. [J. E. Puzas, R. H. Drivdahl, A. G. Howard, and D. J. Baylink, Proc. Soc. Exper. Biol. Med., 166 113-122, […]]. Cells were harvested from large culture flasks, where they were allowed to grow to near confluency, using trypsin. The cells were plated into 96 well culture plates, 1600 cells in 100 μL per well in Dulbecco's Modified Eagle's Medium with 25 mM HEPES buffer, L-glutamine (584 mg/L); D-glucose (4.5 g/L) supplemented with fetal bovine sera (10%); penicillin (100 units/mL)and streptomycin (100 mcg/mL); sodium pyruvate (10 μM final concentration). The cells were allowed to plate overnight in DMEM containing 10% fetal bovine sera at 37° C., in an atmosphere of 5% CO2 /95% air. Following their placement into 96 well culture plates all the osteoblast-line cells, either the MC3T3-E 1 or the TE-85 cell lines, were allowed an additional 24 hours preincubation period in media containing only 0.1% fetal bovine sera. The next day the test compounds were added and screened at concentrations ranging from 10^-4 to 10^-8 M depending on the study. Twenty hours later, a 20 μL aliquot of media containing 0.4 μCi of ^3 H-thymidine was added to each culture well. The cells were then incubated an additional 4 hours. The incubation was terminated by aspirating the media and washing with HBSS (Hank's Balanced Salt Solution). The cells were then treated with 100 μL of 0.5% trypsin and […] of EDTA for 30 minutes at room temperature. The cells were then aspirated onto a glass fiber filter and washed with water. The radioactivity on the filters was quantified by liquid scintillation spectroscopy. The rate of ^3 H-thymidine incorporation into DNA is then utilized as an index of cell proliferation. The results are shown in Table 1 expressed as % times control where control is 100%.
A general note: Incorporation of labelled thymidine or its analogues reports DNA synthesis.

Assay [2] concerns the target T1, human prostatic tyrosyl phosphatase (Homo sapiens, UniProt P15309).
T1 construct: purchased Sigma Chemical Co
T1 sequence (P15309 33-386): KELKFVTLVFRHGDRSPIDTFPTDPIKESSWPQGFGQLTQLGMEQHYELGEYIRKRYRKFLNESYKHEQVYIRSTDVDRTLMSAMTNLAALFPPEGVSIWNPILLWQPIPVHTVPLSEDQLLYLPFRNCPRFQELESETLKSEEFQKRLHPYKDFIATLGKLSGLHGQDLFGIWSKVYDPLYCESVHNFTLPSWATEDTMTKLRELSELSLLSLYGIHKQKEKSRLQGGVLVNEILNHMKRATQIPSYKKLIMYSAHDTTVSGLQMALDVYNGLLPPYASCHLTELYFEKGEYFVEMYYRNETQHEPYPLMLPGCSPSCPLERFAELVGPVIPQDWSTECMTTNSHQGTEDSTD
In words: biochemical. The settings on record: 30 minutes at 37° C., pH 5.5, (14C)-phosphotyrosine substrate; read-out: Tyr-Pase IC50. The procedure:
Inhibition of the activity of tyrosyl protein phosphatase was evaluated by incubating an aliquot of purified human prostatic tyrosyl protein acid phosphatase (Sigma Chemical Co.) with radiolabeled phosphotyrosine. The radiolabeled substrate, (^14 C)-phosphotyrosine, is separated from the product, (^14 C)-tyrosine by ion exchange chromatography and the production of radiolabeled tyrosine is quantified. Test compounds are screened at a concentration of one micromolar to 1 nM. The ability of test compounds to inhibit tyrosyl phosphatase was expressed as the % inhibition at the highest concentration of test compound tested and/or as the IC50 in Table 1.
The test compounds were incubated in the presence of tyrosyl acid phosphatase and radiolabeled substrate {(^14 C)-phosphotyrosine, (NEN Dupont Custom Synthesis)} plus cold O-phospho-L-tyrosine{(10 uM) (Sigma Chemical Co.)} in a 0.05 mM sodium acetate buffer (pH 5.5) for 30 minutes at 37° C. […] The incubation mixture was passed over an ion-exchange column {(Ag 1-X8) (Bio-Rad Laboratories)} and washed with 2.5 ml of distilled, deionized water. The total column effluent containing the radiolabeled product (^14 C-tyrosine) was collected and quantified by liquid scintillation spectroscopy. The test compounds IC50 was calculated using a quantal (all-or-none) dose-response calculation.

Assay [3] concerns the target T2, Human osteoclastic acid phosphatase (OAP) (Homo sapiens, UniProt P13686).
T2 construct: purified from hairy cell leukemia spleen; from tissue; host or cells: human hairy cell leukemia spleen
T2 sequence (P13686 22-325): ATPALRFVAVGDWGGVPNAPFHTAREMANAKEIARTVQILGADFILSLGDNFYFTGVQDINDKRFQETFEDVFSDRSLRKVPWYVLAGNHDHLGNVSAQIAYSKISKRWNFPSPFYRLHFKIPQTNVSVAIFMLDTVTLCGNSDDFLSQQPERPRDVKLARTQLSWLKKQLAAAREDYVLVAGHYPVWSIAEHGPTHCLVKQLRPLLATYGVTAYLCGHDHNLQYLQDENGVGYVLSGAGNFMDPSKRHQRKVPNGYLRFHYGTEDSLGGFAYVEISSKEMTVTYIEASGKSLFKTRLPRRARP
Nature of the assay: Osteoclastic Acid Phosphatase (OAP) inhibition. The class given is biochemical. The settings on record: pH 5.0, room temperature, 20 minutes; for inhibition at 100 µM: read-out: OAPase % Inh@100 uM. The procedure: Inhibitors of the enzyme are involved with the stimulation of osteoblast cell proliferation in cell culture which is predictive of enhancement of bone mass and bone formation in vivo. Inhibitors of osteoclastic acid phosphatase prevent the resorptive action of osteoclasts and thereby prevent the degradation of bone mass associated with osteoporosis.
The enzyme was stored at -80° C. and was diluted in 50 mM, pH 5.0, sodium acetate buffer prior to use. Test compounds were dissolved in ethanol, DMSO, or water and tested at 100 μM. The assay measures the ability of the enzyme to dephosphorylate methylumbelliferone phosphate to the product, methylumbelliferone, which is fluorescent. The enzyme assay is performed in 50 mM, pH 5.0, sodium acetate buffer as follows: 5 μL of compound was added to 150 μL Of buffered enzyme solution. […] The reaction was performed at room temperature at pH=5.0 and terminated after 20 minutes by the addition of 50 μL of 4N NaOH. The reaction product, methylumbelliferone, was measured by fluorescence determination using a Dynatech Microfluor Fluorescence detector.

Usually IC50 stands for the concentration that inhibits the measured activity by half.

`Cc1cccc(C(Cc2ccc(Cl)cc2)P(=O)(O)O)c1` (centres unmarked) [Cmpd 30]: the activity at 0.01 µM in assay [1] was found to be 97%. Moreover, the IC50 in assay [2] was determined as 81.9 µM.

In the case of `O=P(O)(O)C(c1ccccc1)c1ccccc1F` (centres unmarked) [Cmpd 12], the activity at 0.01 µM in assay [1] was 124%. Further, the concentration for half-maximal inhibition (IC50) in assay [2] worked out at 40.9 µM. Moreover, the inhibition at 100 µM in assay [3] was 12%.

On to `Cc1ccc(C(c2ccccc2)P(=O)(O)O)cc1` (centres unmarked) [Cmpd 22], for which, in assay [1], the activity at 0.01 µM stood at 116%. The concentration for half-maximal inhibition (IC50) in assay [2] came out at 152 µM. For the same compound, the inhibition at 100 µM in assay [3] turned out to be 22%.

`Cc1cccc(C(Cc2ccccc2)P(=O)(O)O)c1` (centres unmarked) [Cmpd 29]: the activity at 0.01 µM in assay [1] is 99%. In assay [2], the half-inhibitory concentration (IC50) amounted to 290 µM. Moreover, in assay [3], the inhibition at 100 µM was 15%.

For `O=P(O)(O)C(Cc1ccc(Cl)cc1)c1ccccc1` (centres unmarked) [Cmpd 33], the activity at 0.01 µM in assay [1] is 104%. Besides, in assay [2], the IC50 came to 34.5 µM. Also, the inhibition at 100 µM in assay [3] came to 30%.

As for `O=P(O)(O)C(Cc1ccccc1)c1ccccc1` (centres unmarked) [Cmpd 34], the activity at 0.01 µM in assay [1] worked out at 156%. In assay [2], the half-maximal inhibitory concentration (IC50) was determined as 89.2 µM. Also, the inhibition at 100 µM in assay [3] stood at 15%.

With `O=P(O)(O)C(CCCCc1ccccc1)c1ccccc1` (centres unmarked) [Cmpd 10], the activity at 0.01 µM in assay [1] was 124%. Besides, the values for the IC50 in assay [2] and in assay [3] (read-out: OAPase IC50) were 17.4 µM and 100 µM, respectively.
